What was measured:
[1] = test system: total MnSOD; assay: Western blot of total MnSOD protein levels in C12-treated MNs; type: cell-based, human; settings: BJ-SOD1^L144F MNs, increasing doses of C12, day 31
Experimental: (§1) Protein lysates were resolved in 12% SDS-PAGE gels or 4-20% precast gels in Tris-Glycine-SDS buffer. Proteins were then transferred to a nitrocellulose membrane and blocked with 5% milk in TBST buffer. Primary antibodies were diluted in 5% milk and incubated with the membranes overnight at 4° C. Membranes were washed thrice in TBST buffer. The corresponding horseradish peroxidase secondary antibodies (Life Technologies) were then diluted 1:5000 in 5% milk and incubated at room temperature for 90 minutes. Blots were washed thrice before exposing to ECL for imaging.

[2] = biological target: T1, SIRT1 (Homo sapiens, UniProt Q96EB6); assay: Cellular thermal shift assay (CETSA), SIRT1; settings: 20 μM C12, 1 hour, intact HEK293T cells, 48-68° C.
T1 sequence (Q96EB6 1-747): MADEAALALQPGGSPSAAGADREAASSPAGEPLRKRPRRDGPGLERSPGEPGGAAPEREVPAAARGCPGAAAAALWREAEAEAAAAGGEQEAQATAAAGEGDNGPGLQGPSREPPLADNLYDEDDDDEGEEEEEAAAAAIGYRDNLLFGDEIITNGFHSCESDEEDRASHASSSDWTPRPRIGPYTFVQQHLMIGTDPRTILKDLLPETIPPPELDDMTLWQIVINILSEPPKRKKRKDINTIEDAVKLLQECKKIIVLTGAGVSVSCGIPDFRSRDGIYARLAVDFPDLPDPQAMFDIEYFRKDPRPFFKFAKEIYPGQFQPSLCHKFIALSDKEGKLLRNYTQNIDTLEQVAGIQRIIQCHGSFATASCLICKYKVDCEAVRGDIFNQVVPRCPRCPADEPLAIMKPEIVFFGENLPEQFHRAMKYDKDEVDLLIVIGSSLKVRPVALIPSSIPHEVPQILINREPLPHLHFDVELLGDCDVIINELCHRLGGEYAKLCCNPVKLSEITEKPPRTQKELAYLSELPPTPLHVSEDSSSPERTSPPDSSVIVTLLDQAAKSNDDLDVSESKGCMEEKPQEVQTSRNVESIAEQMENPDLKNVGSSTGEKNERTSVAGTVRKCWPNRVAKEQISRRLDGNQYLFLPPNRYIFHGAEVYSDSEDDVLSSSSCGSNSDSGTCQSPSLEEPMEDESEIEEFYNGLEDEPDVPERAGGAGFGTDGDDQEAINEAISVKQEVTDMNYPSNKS
Experimental: CETSA was performed as previously described (3) and HEK293T cells were used to carry out the experiment. […] After the incubation, the cells were harvested, washed, pellet down and resuspended in 1 mL of PBS. Equal amounts of cell suspensions were aliquoted into Eppendorf tubes. The cell suspensions were then heated (48-68° C.) and lysed using 2 cycles of freeze-thawing. The soluble fractions were isolated and analyzed by Western blot analysis as described above.

[3] = test system: ALS MNs; assay: Neuronal morphology (soma size, primary neurites) in ALS MNs; type: cell-based, human; settings: for number of primary neurites / soma size: day 31; for neuronal morphologies: day 31, NAM 0.5 mM, C12 5 μM, Riluzole 5 μM, Edaravone 100 μM, siRNA
Experimental: Cells were fixed in 4% paraformaldehyde for 15 minutes, permeabilized in 0.1% Triton X-100 for 15 minutes and blocked in buffer containing 5% FBS and 1% BSA for an hour at room temperature. Primary antibodies (Table S4) were diluted in blocking buffer and incubated overnight at 4° C. Cells were washed thrice in PBS. The respective secondary antibodies were diluted 1:1500 in blocking buffer and incubated at room temperature, in the dark, for 90 minutes. DAPI was used at 0.1 μg/ml to visualize cellular nuclei.
Images were acquired using the high content microscope Phenix (Perkin Elmer) using the 20× air objective. Image analyses including cell counts and intensity measurements were performed using Columbus (Perkin Elmer).
For primary neurites analysis, neuronal projections from the soma size was determined based on SMI-32 staining. For soma size analysis, cellular nuclei were identified by DAPI, and the cytoplasmic area surrounding the nucleus was determined based on SMI-32 staining. Soma size area was measured by image analysis software (ImageJ, NIH) based on the cytoplasmic area surrounding the nucleus, excluding neuronal projections.

[4] = test system: ALS MNs; assay: Metabolic flux analysis, MitoStress assay (OCR) in ALS MNs; type: cell-based, human; settings: for ATP production / basal respiration / spare respiratory capacity: NAM 0.5 mM, siRNA 3 days; for ATP production: C12 5 μM; for mitochondrial respiration / metabolic profile: day 31, C12 5 μM, Riluzole 5 μM, Edaravone 100 μM
Experimental: (§2) After dissociating with Accutase, cells were blocked with solution containing phosphate-buffered saline, 0.5% bovine serum albumin (BSA) and 2 mM EDTA. The cells were then incubated with CD171-APC antibody (Miltenyi Biotec) and PSA-NCAM-APC antibody (Miltenyi Biotec) for 10 mins at 4° C. After washing, the cells were then incubated with anti-APC microbeads for 15 minutes at 4° C. The cells were then washed twice and filtered prior to loading into the separation column (LS column) that was attached to a magnetic stand (all from Miltenyi Biotec). After three rounds of washing, the column was removed from the magnetic stand and labelled cells were eluted in culture media for replating.
(§3) Motor neuron cultures at day 27 were dissociated with Accutase and seeded at 2 million cells per well in a 6-well plate. At day 28, non-targeting siRNA or siRNAs were individually complexed with Lipofectamine RNAiMAX following manufacturer's instructions and added to the motor neuron cultures. For each well, 10 pmol of siRNAs and 8 μl of Lipofectamine RNAiMAX were used. Cells were either harvested for RNA and protein analyses, fixed for immunostaining or metabolic flux analysis were performed 3 days after siRNA transfection.

[5] = test system: SMA type I (1-38G) MNs; assay: MitoStress assay in SMA type I MNs; type: cell-based, human; settings: 5 μM C12
[6] = test system: spliced XBP1 (sXBP1); assay: qPCR of ER stress transcript spliced XBP1 in ALS MN cultures; type: cell-based, human; settings: ALS MNs, day 31; C12 5 μM, Riluzole 5 μM, Edaravone 100 μM
Experimental: (§4) Cells were harvested in Trizol reagent for RNA extraction following manufacturer's instructions. Purified RNA was converted to cDNA using the High-Capacity cDNA Reverse Transcription kit, and quantitative PCR (qPCR) was performed on the QuantStudio 5 Real-Time PCR System using PowerUp™ SYBR™ Green Master Mix (all from Applied Biosystems). Gene expressions were normalized to HPRT and ACTB expression unless otherwise stated.

[7] = test system: CHOP; assay: qPCR of ER stress transcript CHOP in ALS MN cultures; type: cell-based, human; settings: ALS MNs, day 31; C12 5 μM, Riluzole 5 μM, Edaravone 100 μM
Experimental: as §4

[8] = test system: ALS MNs; assay: Motor neuron survival assay (ISL1+ MNs) in ALS iPSC-derived MNs; type: cell-based, human; settings: for MN survival (ISL1+ MNs): ALS MNs, treatment from day 28, NAM 0.5 mM, C12 5 μM, Riluzole 5 μM, Edaravone 100 μM, siRNA 10 pmol
Source text: Cultures were then fixed with 4% PFA on Day 25, 28, 31 and 35 respectively for quantification of motor neuron survival. Fixed cultures were stained with the motor neuron marker ISL1, and cellular nuclei were counterstained with DAPI before imaging on the high content microscope Phenix (Perkin Elmer). Percentage of ISL1+ cells was normalized to total nuclei number. To calculate normalized survival index, the percentage of ISL1+/DAPI at day 25 was arbitrary set as 1.0, and motor neuron survival on later days were in turn normalized to day 25 cultures.
as §3

[9] = test system: mitochondrial Complex I; assay: Complex I activity in ALS MNs; type: cell-based, human; settings: day 31, C12
Experimental: Cell lysates were prepared using Complex I Enzyme Activity Microplate Assay Kit (Abcam), following the manufacturer's instructions. Activity of Complex I was recorded, normalized and quantified based on manufacturer's instructions. Biological triplicates were performed with a minimum of 3 technical replicates each.

[10] = test system: ALS MNs; assay: Metabolic flux analysis, Glycolysis stress assay (ECAR) in ALS MNs; type: cell-based, human; settings: for glycolysis: C12 5 μM, siRNA 3 days
Experimental: as §3

[11] = test system: mitochondrial acetyl-lysine proteins; assay: Western blot of acetyl-lysine proteins in purified mitochondrial extracts of ALS MNs; type: cell-based, human; settings: panel of ALS MNs, 5 μM C12, day 31
Experimental: as §1
(§5) Mitochondria from motor neuron cultures were isolated using the MACS technology. Motor neurons culture were first Accutase and wash twice with PBS before resuspending in ice cold Lysis buffer. The cells were then homogenized with a dounce homogenizer (Pestle B) 15 strokes. The homogenate was diluted with 1× separation buffer based on manufacturer's instructions. Anti-TOM22 were added to magnetically label the mitochondria before incubating at 4° C. for 1 hour. The cells were then washed twice and filtered prior to loading into the separation column (LS column) that was attached to a magnetic stand (all from Miltenyi Biotec). After three rounds of washing, the column was removed from the magnetic stand and labelled mitochondria were eluted in storage buffer for downstream applications.

[12] = test system: ALS patients; settings: cited from earlier work
[13] = test system: GCN5L1; assay: GCN5L1 knockdown by siRNA in iPSC-derived MNs (qPCR); type: cell-based, human; settings: day 31, vs non-targeting siRNA
Experimental: as §3, §4

[14] = test system: healthy MNs; assay: Mitochondrial NAD+ quantification in healthy iPSC-derived MNs; type: cell-based, human; settings: NAM supplementation
Experimental: as §5
(§6) Mitochondria from motor neuron cultures (10 million cells) were isolated using the MACS technology (as described above). Mitochondrial NAD+ was prepared quantified using NAD/NADH-Glo™ Assay (Promega) following manufacturer's instructions. Briefly, isolated mitochondria were first diluted in PBS, bicarbonate base buffer and 1% DTAB in a ratio of 2:1:1. […] After heating, 0.5M of Trizma base was added to the suspension and levels of mitochondrial NAD^+ were recorded, normalized to NAD^+ standard curve and quantified based on manufacturer's instructions (Promega). […]

[15] = test system: healthy MNs; assay: Metabolic flux analysis, MitoStress assay (OCR) in healthy MNs; type: cell-based, human
Experimental: as §2, §3

[16] = test system: ALS MNs; assay: Mitochondrial NAD+ quantification in ALS iPSC-derived MNs; type: cell-based, human; settings: 0.5 mM NAM
Experimental: as §5, §6

COc1ccc(-c2cc3ccc(O)cc3oc2=O)cc1 [C12, 7-hydroxy-3-(4′-methoxyphenyl) coumarin]
total MnSOD protein levels [1]: remains unchanged | thermal stability of SIRT1 [2]: but not another abundantly expressed sirtuin, SIRT1 | number of primary neurites [3]: increased number of primary neurites | soma size [3]: enlarged soma sizes | neuronal morphologies [3]: improved neuronal morphologies | ATP production ([4]; SIRT3 lentivirus day 28-31): rescued ATP production back to healthy levels | mitochondrial respiration / metabolic profile [4]: promoted mitochondrial respiration | metabolic defect (basal respiration, ATP production) [5]: did not improve the metabolic defect | expression of ER stress transcript sXBP1 [6]: significantly reduced | expression of ER stress transcript CHOP [7]: significantly reduced | cytotoxicity ([8]; 10 μM C12, ALS MNs (BJ-SOD1^L144F)): cytotoxic | MN survival (ISL1+ MNs) [8]: promoted ALS MN survival | mitochondrial Complex I activity [9]: increased mitochondrial Complex I activity | glycolysis [10]: reduced glycolysis | mitochondrial acetyl-lysine signals [11]: significantly reduced

CC1=NN(c2ccccc2)C(=O)C1 [Edaravone]
number of primary neurites [3]: no significant change | soma size [3]: no significant change | neuronal morphologies [3]: did not improve neuronal morphologies | mitochondrial respiration / metabolic profile [4]: did not show any significant changes | expression of ER stress transcript sXBP1 [6]: significantly reduced | expression of ER stress transcript CHOP [7]: significantly reduced | MN survival (ISL1+ MNs) [8]: promoted ALS MN survival | efficacy in ALS patients [12]: efficacy only in a small subset of ALS patients

Nc1nc2ccc(OC(F)(F)F)cc2s1 [Riluzole]
expression of ER stress transcript sXBP1 [6]: significantly reduced | expression of ER stress transcript CHOP [7]: significantly reduced | efficacy in ALS patients [12]: efficacious amongst bulbar-onset ALS patients and not in subjects with limb-onset ALS | lifespan extension ([12]; on average): 3 months

GCN5L1 siRNA: siRNA against human GCN5L1, Dharmacon J-012580-09-0010 (AGAGGAGGCGAGAGGCUAU; listed as RNA, further chemistry not given here)
neuronal morphologies [3]: healthier neuronal morphologies | ATP production ([4]; SIRT3 lentivirus day 28-31): rescued ATP production back to healthy levels | ATP production ([4]; SIRT3 lentivirus day 28-31, listed as siRNAs targeting GCN5L1): significant improvements | basal respiration ([4]; SIRT3 lentivirus day 28-31): significant improvements | spare respiratory capacity ([4]; SIRT3 lentivirus day 28-31): significant improvements | MN survival (ISL1+ MNs) [8]: promoted survival | basal acidification [10]: reduced | glycolytic capacity [10]: reduces glycolytic capacity | hyper-glycolytic metabolic profile / phenotype [10]: reduced hyper-glycolytic phenotype | glycolysis [10]: reduced | GCN5L1 knockdown [13]: 60%

NC(=O)c1cccnc1 [NAM, Nicotinamide]
neuronal morphologies [3]: healthier neuronal morphologies | ATP production ([4]; SIRT3 lentivirus day 28-31): significantly improved | basal respiration ([4]; SIRT3 lentivirus day 28-31): significantly improved | spare respiratory capacity ([4]; SIRT3 lentivirus day 28-31): significantly improved | mitochondrial NAD+ levels [14]: did not elevate | MN survival (ISL1+ MNs) [8]: promoted ALS MN survival | hyper-glycolytic metabolic profile / phenotype [10]: corrected the hyper-glycolytic metabolic profile | mitochondrial respiration (OCR parameters) [15]: no significant effects | mitochondrial NAD+ levels [16]: significantly elevated

— patent US12662672B2, “Method of promoting survival and/or function of a motor neuron and related agents, uses and methods” (Agency for Science, Technology and Research, priority 2019, dated 2026)
